The values that follow come from patent US6486097B2, “Herbicidal fatty acid and maleic hydrazide salt compositions” (W. Neudorff GmbH KG, priority 2000, dated 2002).

Data set [1] relates to dandelions. As to the kind of experiment: Potted dandelion test of NH4C9 and NH4C11:1 with and without MH (Example 7). Particulars: for Number of Dead Plants of 15 Total: 0.5 L/m^2, sprayed twice 8 days apart, 8 days after second spray; for Contact herbicidal activity (in words): without NH4MH, treated plants were able to re-grow. Type of data set: in vivo. An excerpt:
Five-month-old potted dandelions were sprayed with solutions of ammonium fatty acid soaps in combination with NH4MH. The solutions contained 3.9% ammonium fatty acid soaps and 1.15% NH4MH. The plants were sprayed at a rate of 0.5 L/m^2. The plants were sprayed twice, with 8 days between sprays. Final observations were taken 8 days after the second spray. Fifteen plants were used per treatment.

The subject of data set [2] is dandelions. Kind of data set: Field dandelion test with added alcohol and gum (Example 6). As to conditions: 0.2 L/m^2, re-sprayed after 14 days, 10 days after second spray. The format is in vivo. The procedure:
This test compared the herbicidal activity of NH4C9, NH4MH and (NH4C9+NH4MH) with added alcohol and gums on dandelion mortality. The gum Kelzan S (Merck & Co., Inc.) at 0.08% was used as a thickener.
This test also investigated the effect of adding NH4MH to emulsified C9 acid. The emulsified C9 acid solution was made by adding 3.5 g of C9 acid with 1.0 g of Tween 80 and 95.5 g water (no ammonium hydroxide was added). For the C9 acid+NH4MH solution, 13 g of water was replaced by 13 g of the 6.9% NH4MH stock solution.
Every solution was sprayed onto 16 field-grown, medium-sized dandelions. All of the dandelions had leaves longer than 10 cm. The dandelions were sprayed at a rate of 0.2 L/m^2. All plants were re-sprayed 14 days after the first spray. The number of dead plants was assessed 10 days after the second spray.

The subject of data set [3] is dandelions. As to the kind of experiment: Field dandelion test (Example 2). Type of data set: in vivo. Particulars: 0.2 L/m^2, re-sprayed after 7 days, 38 days after first spray. The procedure:
This test compared the herbicidal activity of NH4C9, NH4MH, and NH4C9+NH4MH on dandelion mortality. This test also investigated the effect of adding isopropyl alcohol (IPA) to NH4C9+NH4MH. Nine dandelions were grown in 0.5 m^2 areas of soil in the field. At the time of spraying the dandelions were very large, with leaves longer than 25 cm. Every treatment was sprayed onto 4 areas of soil. Every 0.5 m^2 plot received 100 ml of solution (0.2 L/m^2). All of the areas were re-sprayed 7 days after the first spray. The number of dead plants was assessed 38 days after the first spray.
Round Up (35.6% glyphosate N-(phosphonomethyl) glycine) produced by Monsanto, Killex (9.5% 2,4-D (2,4-dichlorophenoxy) acetic acid, Mecoprop (5% 2-(4-chloro-2-methylphenoxy)) propanoic acid and 0.9% Dicamba (3,6-dichloro-o-anisic acid) by Green Cross were diluted as per label instructions and included as standards.

Data set [4] relates to dandelions. Kind of data set: Dandelion test of NH4C9 with a range of NH4MH concentrations (Example 3). As to conditions: sprayed to wetness, 36 days after spraying. Type of data set: in vivo. The procedure:
This test examined NH4C9 combined with a range of NH4MH concentrations. All of the NH4C9 treatments contained 3.9% NH4C9. All of the solutions were sprayed to wetness onto 10 dandelions. The number of dead plants was assessed 36 days after spraying.

The test system of data set [5] is dandelions. Kind of data set: Greenhouse dandelion test with a gum (Example 4), mortality. As to conditions: pH 7.38. The format is in vivo. An excerpt: (§1) This test studied the effect of thickening NH4C9+NH4MH solutions on plant mortality. The solutions were thickened by adding 0.5 g of the xanthan gum Rhodopol 23 suspended in 3.0 g propylene glycol to 96.5 g solution. The pH values of the test solutions were adjusted to 7.38.

Data set [6] in a line: Viscosity of test solutions (Example 4). Type of data set: physicochemical. Particulars: pH 7.38.
From the text: as §1

For data set [7], the system named is dandelions. As to the kind of experiment: Greenhouse dandelion test of TopGun with and without MH (Example 5). The format is in vivo. Particulars: NH4MH 1.15%; sprayed to run-off; 15 days after spraying. The procedure:
TopGun is a proprietary emulsified formulation containing 18% C9 (nonanoic) acid present as free acid. TopGun was diluted to 1.8% C9 acid. Each solution was sprayed to run-off onto ten 20 cm diameter dandelions grown in the greenhouse. The number of dead plants was assessed 15 days after spraying.

The conditions of data set [8]: same number of moles of NH4MH and MH. Here is the method:
The compositions of the solutions are listed below. Note that slightly more NH4MH was added than MH acid, as NH4MH has a higher molecular weight. The same number of moles of NH4MH and MH were used.
Viscosity is measured in centipoise (milli pascal seconds). Water has a viscosity of 1.0.

[9] abbreviates: C9 acid 3.5% emulsified with Tween 80.

Consider `O=c1ccc(=O)[nH][nH]1` [MH, 1,2-dihydro-3,6-pyridazine-dione], for which the “Number of Dead Plants of 15 Total” value in the data set on dandelions [1] (MH only 1%) was determined as 0.
As to `CCCCCCCCC(=O)O` [C9 acid, Nonanoic acid], in the data set with dandelions [2] (setting [9]), the “Dead Plants (#/16)” value is listed as 3 #/16 and the “Dead Plants (%)” value amounted to 19%.
With `CCCCCCCCC(=O)O.N` [NH4C9, ammonium salt of nonanoic acid], in the data set with dandelions [3] (NH4C9 3.9%), the “Dead Plants (#/36)” value is 0 #/36 and the “Dead Plants (%)” value is 0%. In the data set with dandelions [4] (NH4C9 3.9%), the “Mortality (#/10 plants)” value was 0 #/10 plants. Besides, the “Mortality (#/10)” value with dandelions [5] (NH4C9 2.2%) was 1 #/10. Moreover, in data set [6] (NH4C9 2.2%), the “Viscosity (Cps)” value was found to be 1 Cps. In the data set with dandelions [2] (NH4C9 3.9%), the “Dead Plants (#/16)” value is recorded as 2 #/16 and the “Dead Plants (%)” value turned out to be 13%. Moreover, in the data set on dandelions [1] (NH4C9 3.9%), the “Number of Dead Plants of 15 Total” value stood at 1. Moreover, in the data set on dandelions [1], the “Contact herbicidal activity (in words)” value was “good contact herbicides”.
With `N.O=c1ccc(O)n[nH]1` [NH4MH, ammonium salt of maleic hydrazide], in the data set with dandelions [3] (NH4MH 1.15%), the “Dead Plants (#/36)” value is 1 #/36 and the “Dead Plants (%)” value is recorded as 3%. Moreover, in the data set with dandelions [4] (NH4MH 1.15%), the “Mortality (#/10 plants)” value was 0 #/10 plants. The “Mortality (#/10)” value with dandelions [5] (NH4MH 1.15%) was 0 #/10. Further, the “Viscosity (Cps)” value in data set [6] (NH4MH 1.15%) was 1 Cps. The “Number of Dead Plants (#/10 Plants)” value in the data set with dandelions [7] is recorded as 0 #/10 Plants. For the same compound, in the data set with dandelions [2] (NH4MH 0.9% only), the “Dead Plants (#/16)” value was 0 #/16 and the “Dead Plants (%)” value is reported as 0%. In data set [8], the “Solubility in NH4C9 concentrate compared with MH” value is “superior solubility”.
As to `C=CCCCCCCCCC(=O)O.N` [NH4C11:1], the “Number of Dead Plants of 15 Total” value in the data set on dandelions [1] (NH4C11:1 3.9%) was 2. For the same compound, in the data set on dandelions [1], the “Contact herbicidal activity (in words)” value is on record as “good contact herbicides”.
